Test results published in PMC7127338 (Bioorganic & Medicinal Chemistry Letters, 2013).
“Also recorded” adds a separate entry of the source.

Columns and labels:
[1] = Stability study at −20 °C; assay type: physicochemical
[2] = Stability study at different pH values; assay type: physicochemical; settings: 2 days

In the case of `C[C@H](NP(=O)(Oc1ccccc1)O[C@H]1O[C@H](CO)[C@@H](O)[C@@H]1F)C(=O)OC1CCCCC1` (stereo partly drawn) [compound 14b, 2-deoxy-2-fluoro-D-arabinofuranose 1-O-phenyl-(cyclohexoxy-alaninyl)-phosphate], the “Purity after 1 h” value ([1]; 1 h after purification by column chromatography) was 68%, the “Purity after 13 h” value ([1]; 13 h (one night) at −20 °C) was 30% and the “Purity after 20 h” value ([1]; 20 h, −20 °C) was 8%.

In the case of `C[C@H](NP(=O)(Oc1ccccc1)O[C@H]1O[C@H](CO)[C@@H](O)C1(F)F)C(=O)OC1CCCCC1` (stereo partly drawn) [compound 25c, 2-deoxy-2,2-difluoro-D-ribofuranose 1-O-phenyl-(cyclohexoxy-alaninyl)-phosphate], the “Stability study at pH 5 (degradation)” value ([2]; pH 5 (acidic)) was “no degradation at all after 2 days; also recorded: No degradation observed over 2 days”, the “Stability study at pH 7 (degradation)” value ([2]; pH 7 (neutral)) was “no degradation at all after 2 days; also recorded: No degradation observed over 2 days” and the “Stability study at −20 °C (degradation)” value ([1]; storage at −20 °C) was “no degradation at all after 4 months; also recorded: No degradation observed after 4 months”.
